Results on six compounds are retold here after patent US20190055231A1, “BACE1 INHIBITORS” (Hoffmann-La Roche Inc., priority 2016, published 2019).

Some results are limits rather than exact numbers.

Data set [1] has as its system Aβ40 in brain of wild-type mice. Nature of the data set: Mouse acute in vivo model (inhibition of Aβ40 in brain of wild-type mice). The following applies: 4 h post dose; for Brain Aβ-lowering 3 mg/kg: single p.o. dose 3 mg/kg; for Brain Aβ-lowering 10 mg/kg: single p.o. dose 10 mg/kg; for Brain Aβ-lowering 30 mg/kg: single p.o. dose 30 mg/kg. How it is done: Mouse Acute In Vivo Model (Inhibition of Aβ40 in Brain of Wild-Type Mice)
Single Dose Efficacy in Mice
The mouse single dose efficacy was measured in brain homogenate from C57Bl/6J wildtype mice after DEA extraction as described in H. Hilpert et al., J. Med. Chem. 2013, 56, 3980-3995 (dx.doi.org/10.1021/jm400225m).
Aβ 40 concentration was determined after solid phase extraction as described above and following a modified protocol from Perkin-Elmer with a commercially available antibody against the N-terminal part of rat Aβ (252Q6, Invitrogen cat. No. AMB0062) and an in-house C-terminal specific anti-Aβ40 antibody (BAP-24, Brockhaus M. et al., J. Neuroreport, 1998, 9:1481-1486) bound to acceptor beads (PerkinElmer, Cat. 6772002). 20 μl analyte per well (reconstituted extracts or standard) were loaded to a White Optiplate-96 (Perkin-Elmer, Cat#6005290). Then, a mixture of biotinylated BAP24 antibody (1:2000 diluted at approximately 1 nM final concentration) and antibody 252Q6 bound to AlphaLISA acceptor beads (Perkin-Elmer cat. No. 6772002 (1:100 diluted, 10 ug/mL final concentration) in 1× AlphaLISA buffer (Perkin-Elmer, AL000F) was added. After 1 hour room temperature incubation in the dark, 20 uL of a streptavidin coated donor beads dilution (40 μg/mL) were added and incubated for 30 minutes in the dark. Light emission at 615 nm was recorded using an EnVision AlphaScreen Reader (Perkin-Elmer). Levels of Aβ40 were calculated as percentage of the baseline samples from non-treated animals.
Aβ40 lowering was determined after oral administration in wild-type mice (C57Bl/6J mice, n=3-4) 4 h post dosing. Wild-type mice were used as they have a normal physiological level of APP expression and are thus expected to provide a better physiological model for Aβ-peptide production than APP-transgenic organisms. In vivo efficacy is a key factor for appropriate drug candidates, being more relevant than in vitro activities.

Data set [2] concerns the target T1, BACE1 (Homo sapiens, UniProt P56817). Nature of the data set: Cellular Aβ-lowering assay (Abeta 40 AlphaLISA, HEK293 APP cells). Type of data set: cell-based. Set-up: endogenous in cells; host or cells: HEK293 APP cells. How it is done:
Cellular Aβ-Lowering Assay:
The Abeta 40 AlphaLISA Assay can be used. The HEK293 APP cells were seeded in 96 well Microtiter plates in cell culture medium (Iscove's, plus 10% (v/v) fetal bovine serum, penicillin/streptomycin) to about 80% confluency and the compounds were added at a 3× concentration in ⅓ volume of culture medium (final DMSO concentration was kept at 1% v/v). After 18-20 hrs incubation at 37° C. and 5% CO2 in a humidified incubator, the culture supernatants were harvested for the determination of AP 40 concentrations using Perkin-Elmer Human Amyloid beta 1-40 (high specificity) Kit (Cat#AL275C).
In a Perkin-Elmer White Optiplate-384 (Cat#6007290), 2 ul culture supernatants were combined with 2 μl of a 10× AlphaLISA Anti-hAP Acceptor beads+Biotinylated Antibody Anti-Aβ 1-40 Mix (50 μg/mL/5 nM). After 1 hour room temperature incubation, 16 μl of a 1.25× preparation of Streptavidin (SA) Donor beads (25 μg/mL) were added and incubated for 30 minutes in the Dark. Light Emission at 615 nm was then recorded using EnVision-Alpha Reader. Levels of AP 40 in the culture supernatants were calculated as percentage of maximum signal (cells treated with 1% DMSO without inhibitor). The IC50 value were calculated using the Excel XLfit software.
Cellular Aβ-Lowering Assay (Cell-Based Assay)
(§1) The determination of BACE1 activity can be either measured by using an enzymatic cell-free fluorescence assay (BACE1 cell free, table 2) or by a whole cell assay using HEK293 APP cells (Cellular Aβ-lowering, table 2). Both assays are suitable to determine BACE1 inhibition.
A general note: In Alpha technology, singlet oxygen from a donor bead excites a nearby acceptor bead.

In the next data set the target is Mouse P-gp (Mus musculus, UniProt P21447). The data set can be described thus: P-gp transport assay (mouse). Type of data set: in vitro ADME. The following applies: efflux ratio. The text has this:
(§2) P-Gp Transport Assay (Human and Mouse) (P-Gp Assay)
(§3) In the assay of the P-gp efflux ratio ER as described hereinabove, a compound with ER<2.5 is regarded most suitable. In addition, compounds with low hERG channel binding are suitable as well.

Another data set concerns the target T2, BACE2 (Homo sapiens, UniProt Q9Y5Z0).
T2 sequence (Q9Y5Z0 63-518): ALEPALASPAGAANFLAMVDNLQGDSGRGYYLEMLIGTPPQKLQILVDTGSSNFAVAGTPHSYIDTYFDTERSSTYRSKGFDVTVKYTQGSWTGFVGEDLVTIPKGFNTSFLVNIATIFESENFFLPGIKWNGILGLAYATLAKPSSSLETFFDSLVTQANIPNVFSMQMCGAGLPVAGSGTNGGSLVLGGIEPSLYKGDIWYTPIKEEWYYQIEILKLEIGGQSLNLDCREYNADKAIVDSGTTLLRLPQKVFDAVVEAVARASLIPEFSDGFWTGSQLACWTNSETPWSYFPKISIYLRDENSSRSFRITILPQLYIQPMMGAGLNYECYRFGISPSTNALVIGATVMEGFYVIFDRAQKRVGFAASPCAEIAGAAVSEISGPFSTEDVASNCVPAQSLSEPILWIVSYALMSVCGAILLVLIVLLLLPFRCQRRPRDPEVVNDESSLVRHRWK
The data set can be described thus: BACE2 cell-free assay (BACE2 enzyme assay). Type of data set: biochemical. The conditions noted are these: BACE2 IC50 divided by BACE1 IC50, cell free assays. The text has this:
BACE2 Cell-Free Assay (BACE2 Enzyme Assay)
Selectivity versus related targets is important in terms of safety of a drug candidate. BACE2 is a close homolog of BACE1. BACE2 was recently reported to play a crucial role in pigmentation of the skin by processing pigment cell-specific melanocyte protein (PMEL). (Proc Natl Acad Sci USA. 2013 Jun. 25; 110(26):10658-63. doi: 10.1073/pnas.1220748110. Epub 2013 Jun. 10). It is believed that PMEL contributes in melanogenesis. Therefore, selectivity versus BACE2 is advantageous when it comes to pigmentation of the skin. The selectivity ratio of BACE2/BACE1 IC50 was calculated by dividing the BACE2 IC50 value by the BACE1 IC50 value determined each in the cell free assay. […] This implies a 3-fold improvement of example 1 compared to comparators 4 and 5.

The target in data set [3] is T1, BACE1. The data set can be described thus: BACE1 cell-free assay (BACE1 enzyme assay). The data set is classed as biochemical.
Description: BACE1 Cell-Free Assay (BACE1 Enzyme Assay)
as §1

The next data set addresses Human P-gp (Homo sapiens, UniProt P08183). Nature of the data set: P-gp transport assay (human). Type of data set: in vitro ADME. The conditions noted are these: efflux ratio.
Description: as §2, §3

The target of another data set is hERG channel (Homo sapiens, UniProt Q12809). The data set can be described thus: hERG IC20 assay. The data set is classed as cell-based. The conditions noted are these: for IC20: human, hERG IC20 assay. The text has this: The methods to determine the hERG IC20 values was described in Industrializing electrophysiology: HT automated patch clamp on SyncroPatch® 96 using instant frozen cells. Polonchuk L., Methods Mol Biol. 2014; 1183:81-92. (doi: 10.1007/978-1-4939-1096-0_5.) PMID:25023303
hERG channel, sequence (Q12809 whole entry): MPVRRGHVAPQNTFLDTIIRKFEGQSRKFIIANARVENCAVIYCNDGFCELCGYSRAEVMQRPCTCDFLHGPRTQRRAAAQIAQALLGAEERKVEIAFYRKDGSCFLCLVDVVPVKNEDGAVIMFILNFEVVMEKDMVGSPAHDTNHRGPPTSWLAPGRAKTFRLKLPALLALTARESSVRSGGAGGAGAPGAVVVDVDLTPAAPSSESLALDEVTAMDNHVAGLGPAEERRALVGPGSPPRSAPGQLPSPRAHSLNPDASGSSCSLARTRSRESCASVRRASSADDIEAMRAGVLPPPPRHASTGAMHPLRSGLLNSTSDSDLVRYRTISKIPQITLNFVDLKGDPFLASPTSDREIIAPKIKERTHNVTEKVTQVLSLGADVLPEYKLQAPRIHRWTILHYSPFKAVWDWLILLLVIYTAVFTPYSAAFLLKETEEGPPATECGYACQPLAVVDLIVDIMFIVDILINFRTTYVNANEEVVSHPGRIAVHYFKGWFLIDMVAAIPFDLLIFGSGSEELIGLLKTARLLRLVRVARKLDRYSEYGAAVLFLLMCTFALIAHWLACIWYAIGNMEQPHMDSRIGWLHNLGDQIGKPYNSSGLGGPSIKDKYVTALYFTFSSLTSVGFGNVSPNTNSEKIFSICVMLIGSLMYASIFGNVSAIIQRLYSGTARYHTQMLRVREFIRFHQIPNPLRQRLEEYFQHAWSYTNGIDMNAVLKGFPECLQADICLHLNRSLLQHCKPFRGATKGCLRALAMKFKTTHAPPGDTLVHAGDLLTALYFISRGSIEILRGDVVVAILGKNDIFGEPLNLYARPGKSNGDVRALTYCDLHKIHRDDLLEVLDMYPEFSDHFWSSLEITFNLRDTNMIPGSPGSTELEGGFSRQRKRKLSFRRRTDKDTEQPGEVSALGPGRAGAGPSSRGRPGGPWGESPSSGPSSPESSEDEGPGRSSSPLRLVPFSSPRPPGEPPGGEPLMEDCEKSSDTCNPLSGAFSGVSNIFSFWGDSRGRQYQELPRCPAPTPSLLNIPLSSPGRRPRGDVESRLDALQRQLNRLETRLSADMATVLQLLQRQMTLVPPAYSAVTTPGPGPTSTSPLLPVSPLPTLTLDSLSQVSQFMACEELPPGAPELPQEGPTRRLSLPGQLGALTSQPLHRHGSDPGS
QT prolongation is a cardiovascular risk caused by drug candidates which inhibit the hERG channel (human ether a go-go). A sufficient safety margin between the hERG IC20 value and the free plasma concentration necessary to achieve the envisaged thereapeutic effects is desired (ICH. The nonclinical evaluation of the potential for delayed ventricular repolarization (QT interval prolongation) by human pharmaceuticals (S7B), issued as CPMP/ICH/423/02, adopted by CHMP in May 2005 (http://www.ich.org/cache/compo/276-254-1.html; Redfern W S, Carlsson L, Davis A S, Lynch W G, MacKenzie I, Palethorpe S, Siegl P K, Strang I, Sullivan A T, Wallis R, Camm A J, Hammond T G. Relationships between preclinical cardiac electrophysiology, clinical QT interval prolongation and torsade de pointes for a broad range of drugs: evidence for a provisional safety margin in drug development. Cardiovasc Res. 2003 Apr. 1; 58(1):32-45.)). Reducing the activity against efflux transporters expressed at the blood-brain-barrier such as P-glycoprotein P-gp, might result in reduction of the free plasma concentration by optimizing brain penetration.
For orientation: The hERG channel carries a current that helps repolarise heart muscle cells.

[4] abbreviates: HEK293 APP cells, Aβ40 in supernatant, read-out: BACE1 cell act. Aβ40 IC50.

As a reminder, the IC20 is the concentration needed for an effect of 20%. Low readings indicate an effect from little substance, high ones a need for much substance.

T1 sequence (P56817 46-501): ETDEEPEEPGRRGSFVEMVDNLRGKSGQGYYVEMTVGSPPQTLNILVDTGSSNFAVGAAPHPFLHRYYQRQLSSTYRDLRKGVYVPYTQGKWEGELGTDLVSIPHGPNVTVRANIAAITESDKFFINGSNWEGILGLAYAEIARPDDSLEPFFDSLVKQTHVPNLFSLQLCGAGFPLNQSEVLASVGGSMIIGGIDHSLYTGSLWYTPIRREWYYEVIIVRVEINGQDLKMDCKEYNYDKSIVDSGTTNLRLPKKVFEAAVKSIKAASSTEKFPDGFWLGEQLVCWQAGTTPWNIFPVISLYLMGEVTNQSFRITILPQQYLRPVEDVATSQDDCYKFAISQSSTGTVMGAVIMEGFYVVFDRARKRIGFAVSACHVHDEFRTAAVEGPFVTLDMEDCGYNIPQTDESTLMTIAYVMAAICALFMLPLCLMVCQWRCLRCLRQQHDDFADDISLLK
Mouse P-gp, sequence (P21447 whole entry): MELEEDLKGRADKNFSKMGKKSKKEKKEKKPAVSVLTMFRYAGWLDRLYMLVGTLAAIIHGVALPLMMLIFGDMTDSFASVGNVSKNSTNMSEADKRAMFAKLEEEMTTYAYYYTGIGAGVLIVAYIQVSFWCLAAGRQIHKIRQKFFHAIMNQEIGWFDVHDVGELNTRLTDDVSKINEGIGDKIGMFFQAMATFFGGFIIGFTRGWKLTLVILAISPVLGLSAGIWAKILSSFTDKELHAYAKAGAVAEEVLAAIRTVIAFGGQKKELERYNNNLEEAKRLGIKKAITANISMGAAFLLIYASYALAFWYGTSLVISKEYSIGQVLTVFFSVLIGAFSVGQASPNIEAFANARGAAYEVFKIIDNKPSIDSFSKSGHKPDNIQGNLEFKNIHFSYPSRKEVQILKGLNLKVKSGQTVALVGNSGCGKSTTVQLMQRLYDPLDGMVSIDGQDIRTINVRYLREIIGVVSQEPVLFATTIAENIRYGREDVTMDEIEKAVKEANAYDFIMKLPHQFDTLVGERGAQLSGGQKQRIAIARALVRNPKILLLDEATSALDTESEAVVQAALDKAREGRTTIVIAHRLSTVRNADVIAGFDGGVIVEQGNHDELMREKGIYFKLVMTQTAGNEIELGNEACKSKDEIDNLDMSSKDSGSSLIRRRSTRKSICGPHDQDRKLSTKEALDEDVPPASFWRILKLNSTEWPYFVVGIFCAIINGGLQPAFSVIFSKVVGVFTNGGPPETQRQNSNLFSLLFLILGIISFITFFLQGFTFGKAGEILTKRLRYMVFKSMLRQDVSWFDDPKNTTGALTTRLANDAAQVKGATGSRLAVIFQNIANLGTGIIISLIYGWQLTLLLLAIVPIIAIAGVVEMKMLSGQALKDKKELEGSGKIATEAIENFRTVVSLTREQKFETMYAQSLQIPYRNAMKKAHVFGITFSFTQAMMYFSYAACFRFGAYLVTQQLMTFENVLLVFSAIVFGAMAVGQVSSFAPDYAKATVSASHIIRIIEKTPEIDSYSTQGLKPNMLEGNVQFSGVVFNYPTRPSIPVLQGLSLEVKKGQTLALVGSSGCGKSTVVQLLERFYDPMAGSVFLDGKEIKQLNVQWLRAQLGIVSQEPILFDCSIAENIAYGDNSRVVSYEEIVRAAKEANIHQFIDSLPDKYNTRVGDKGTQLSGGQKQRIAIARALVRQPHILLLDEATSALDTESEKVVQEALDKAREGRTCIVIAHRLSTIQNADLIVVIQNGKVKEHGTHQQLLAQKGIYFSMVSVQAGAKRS
Human P-gp, sequence (P08183 whole entry): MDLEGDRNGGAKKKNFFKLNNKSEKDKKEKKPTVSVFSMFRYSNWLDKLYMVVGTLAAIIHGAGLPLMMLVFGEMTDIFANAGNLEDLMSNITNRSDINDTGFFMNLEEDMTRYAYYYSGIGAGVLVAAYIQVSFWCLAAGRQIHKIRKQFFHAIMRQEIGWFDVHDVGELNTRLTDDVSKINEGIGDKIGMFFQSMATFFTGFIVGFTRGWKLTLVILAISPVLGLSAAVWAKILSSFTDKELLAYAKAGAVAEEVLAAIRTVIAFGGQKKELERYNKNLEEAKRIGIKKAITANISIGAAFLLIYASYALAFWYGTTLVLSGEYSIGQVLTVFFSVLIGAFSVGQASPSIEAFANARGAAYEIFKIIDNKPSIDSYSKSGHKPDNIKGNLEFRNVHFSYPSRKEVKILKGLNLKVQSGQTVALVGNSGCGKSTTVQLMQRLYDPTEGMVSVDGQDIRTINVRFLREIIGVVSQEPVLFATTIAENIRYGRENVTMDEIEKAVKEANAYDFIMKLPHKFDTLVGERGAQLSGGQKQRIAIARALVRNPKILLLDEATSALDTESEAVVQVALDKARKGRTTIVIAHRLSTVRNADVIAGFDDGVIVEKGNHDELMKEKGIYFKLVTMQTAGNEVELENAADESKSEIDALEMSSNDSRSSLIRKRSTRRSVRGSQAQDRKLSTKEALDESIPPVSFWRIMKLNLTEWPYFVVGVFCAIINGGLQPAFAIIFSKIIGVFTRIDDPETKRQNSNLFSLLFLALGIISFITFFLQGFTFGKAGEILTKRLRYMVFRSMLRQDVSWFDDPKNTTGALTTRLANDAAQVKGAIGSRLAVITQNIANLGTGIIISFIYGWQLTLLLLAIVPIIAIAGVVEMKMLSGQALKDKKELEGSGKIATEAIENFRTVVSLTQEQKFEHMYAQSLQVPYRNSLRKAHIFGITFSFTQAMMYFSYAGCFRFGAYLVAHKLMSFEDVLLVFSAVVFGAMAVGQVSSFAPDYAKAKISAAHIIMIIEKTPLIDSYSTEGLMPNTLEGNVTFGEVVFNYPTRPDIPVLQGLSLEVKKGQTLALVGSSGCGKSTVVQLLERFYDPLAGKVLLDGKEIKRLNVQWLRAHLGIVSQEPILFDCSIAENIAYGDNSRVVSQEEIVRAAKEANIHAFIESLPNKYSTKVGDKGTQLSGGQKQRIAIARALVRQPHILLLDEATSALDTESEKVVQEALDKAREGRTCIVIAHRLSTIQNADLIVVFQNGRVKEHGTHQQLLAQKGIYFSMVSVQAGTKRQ

With `C[C@]1(c2nc(NC(=O)c3ccc(C#N)cn3)ccc2F)N=C(N)O[C@H](C(F)(F)F)C1(F)F` [Comparator 1, N-(6-((4R,6S)-2-Amino-5,5-difluoro-4-methyl-6-(trifluoromethyl)-5,6-dihydro-4H-1,3-oxazin-4-yl)-5-fluoropyridin-2-yl)-5-cyanopicolinamide], in data set [1], the “Brain Aβ-lowering 3 mg/kg” value turned out to be 2%, the “Brain Aβ-lowering 10 mg/kg” value was determined as 4% and the “Brain Aβ-lowering 30 mg/kg” value is 66%. In addition, the IC50 at BACE1 [2] (setting [4]) was found to be 0.324 µM. Further, at Mouse P-gp, the “Mouse P-gp ER” value stood at 1.3. In addition, the “BACE2/BACE1 IC50 ratio” value on BACE2 is 3.0. Further, on BACE1 [3], the IC50 was determined as 0.029 µM. Besides, the “Human P-gp ER” value on Human P-gp was 1.4.

As for `Cc1cc(C#N)cnc1C(=O)Nc1ccc(F)c([C@@]2(C)N=C(N)O[C@H](C(F)(F)F)C2(F)F)n1` [Comparator 2, N-(6-((4R,6S)-2-Amino-5,5-difluoro-4-methyl-6-(trifluoromethyl)-5,6-dihydro-4H-1,3-oxazin-4-yl)-5-fluoropyridin-2-yl)-5-cyano-3-methylpicolinamide], in data set [1], the “Brain Aβ-lowering 3 mg/kg” value is listed as 10% and the “Brain Aβ-lowering 10 mg/kg” value worked out at 42%. Further, at BACE1 [2] (setting [4]), the IC50 was found to be 0.203 µM. In addition, at Mouse P-gp, the “Mouse P-gp ER” value came to 1.4. Also, on BACE2, the “BACE2/BACE1 IC50 ratio” value was 3.0. On BACE1 [3], the IC50 was determined as 0.019 µM.

As for `C[C@]1(c2nc(NC(=O)c3ccc(C#N)cn3)ccc2F)N=C(N)O[C@@H](C(F)(F)F)C1(F)F` [Comparator 3, N-(6-((4R,6R)-2-Amino-5,5-difluoro-4-methyl-6-(trifluoromethyl)-5,6-dihydro-4H-1,3-oxazin-4-yl)-5-fluoropyridin-2-yl)-5-cyanopicolinamide], the IC50 at BACE1 [2] (setting [4]) is 37.4 µM; on BACE1 [2] (read-out: cellular potency) it was > 35 µM.

Take `C[C@@]1(c2nc(NC(=O)c3ccc(C#N)cn3)ccc2F)C[C@@H](C(F)(F)F)OC(N)=N1` [Comparator 4]: the IC50 at BACE1 [2] (setting [4]) was 0.004 µM; on BACE1 [3], 0.033 µM. Further, the IC20 amounted to 0.04 µM at hERG channel (instant frozen cells (hERG channel, automated patch clamp)) and 0.04 µM on hERG channel.

As for `Cc1cc(C#N)cnc1C(=O)Nc1ccc(F)c([C@]2(C)C[C@@H](C(F)(F)F)OC(N)=N2)n1` [Comparator 5], in data set [1], the “Brain Aβ-lowering 3 mg/kg” value is reported as 7% and the “Brain Aβ-lowering 10 mg/kg” value was 70%. For the same compound, in data set [1] (listed as comparator 5), the “Brain Aβ-lowering 3 mg/kg” value came to 7%. Further, on hERG channel, the “higher affinity to hERG than example 1” value is 5.3 fold and the IC20 amounted to 0.44 µM. For the same compound, the “Mouse P-gp ER” value on Mouse P-gp was 8.1. Also, the “Human P-gp ER” value on Human P-gp was found to be 3.3.

Take `C[C@]1(c2nc(NC(=O)c3ccc(C#N)cn3)ccc2F)N=C(N)O[C@@H](C(F)(F)F)[C@@H]1F` [Comparator 7]: the “Brain Aβ-lowering 30 mg/kg” value in data set [1] came to 70%.
